Ends that are not written are not given here. Peptide text beside a SMILES is read from it.
system: LLCPK1-B64 cells or SaOS-2 cells; assay: cAMP screen of substituted PTHrP(1-28) analogs (% parent); format: cell-based; conditions: parent PTHrP(1-28)NH
Method: Alanine substitution at position 18, 22, 25 and 26 increased activity in at least one cell type. These positions were further substituted to various types of amino acids, and cAMP activity was analyzed in LLCPK1-B64 cells (FIG. 27C) or SaOS-2 cells (FIG. 27D). Cells were treated with analogs at 3×10^−9M in the presence of IBMX for 30 minutes at room temperature. Responses for each analog were normalized to the response for the parent (native) PTHrP(1-28) peptide. Alanine substitutions were A^15 to A^17 (SEQ ID NO:152-154), A^18 (SEQ ID NO:34), A^19 to A^21 (SEQ ID NO:155-157), A^22 (SEQ ID NO:39), A^23 to A^25 (SEQ ID NO:158-160), A^26 (SEQ ID NO:46), and A^27 to A^28 (SEQ ID NO:161-162). Substitutions at position 18 were A^18 (SEQ ID NO: 34), G^18 (SEQ ID NO:163), S^18 (SEQ ID NO:35), M^18 (SEQ ID NO:36), L^18 (SEQ ID NO:164), F^18 (SEQ ID NO:37), N^18 (SEQ ID NO:165), E^18 (SEQ ID NO:38), and K^18 (SEQ ID NO:166). Substitutions at position 22 were A^22 (SEQ ID NO:39), G^22 (SEQ ID NO:167), and S^22 to K^22 (SEQ ID NO:40-45). Substitutions at position 26 were A^26 (SEQ ID NO:46), G^26 (SEQ ID NO:168), S^26 (SEQ ID NO:47), L^26 (SEQ ID NO:169), N^26 (SEQ ID NO:48), W^26 to E^26 (SEQ ID NO:170-171), and K^26 to R^26 (SEQ ID NO:49-50). Substitutions at position 25 were G^25 to S^25 (SEQ ID NO:172-173), L^25 (SEQ ID NO:51), N^25 (SEQ ID NO:174), W^25 (SEQ ID NO:52), E^25 (SEQ ID NO:175), and K^25 to R^25 (SEQ ID NO:53-54). […]

| Molecule | screen cAMP (% parent) |
| --- | --- |
| R25-PTHrP(1-28) (AVSEHQLLHDKGKSIQDLRRRFFLRHLI-NH2) [R25-PTHrP(1-28)NH] | 204 |
| S26-PTHrP(1-28) (AVSEHQLLHDKGKSIQDLRRRFFLHSLI-NH2) [S26-PTHrP(1-28)NH] | 107 |
| W25-PTHrP(1-28) (AVSEHQLLHDKGKSIQDLRRRFFLWHLI-NH2) [W25-PTHrP(1-28)NH] | 270 |
| N22-PTHrP(1-28) (AVSEHQLLHDKGKSIQDLRRRNFLHHLI-NH2) [N22-PTHrP(1-28)NH] | 138 |
| E18,A22,26-PTHrP(1-28) (AVSEHQLLHDKGKSIQDERRRAFLHALI-NH2) [E18, A22, 26-PTHrP(1-28)NH] | 190 |
| K25-PTHrP(1-28) (AVSEHQLLHDKGKSIQDLRRRFFLKHLI-NH2) [K25-PTHrP(1-28)NH] | 163 |
| A18,22,W25,K26-PTHrP(1-28) (AVSEHQLLHDKGKSIQDARRRAFLWKLI-NH2) [A18, 22, W25, K26-PTHrP(1-28)NH] | 329 |
| S22-PTHrP(1-28) (AVSEHQLLHDKGKSIQDLRRRSFLHHLI-NH2) [S22-PTHrP(1-28)NH] | 141 |
| L25-PTHrP(1-28) (AVSEHQLLHDKGKSIQDLRRRFFLLHLI-NH2) [L25-PTHrP(1-28)NH] | 325 |
| A26-PTHrP(1-28) (AVSEHQLLHDKGKSIQDLRRRFFLHALI-NH2) [A26-PTHrP(1-28)NH] | 142 |
| R26-PTHrP(1-28) (AVSEHQLLHDKGKSIQDLRRRFFLHRLI-NH2) [R26-PTHrP(1-28)NH] | 143 |
| M18-PTHrP(1-28) (AVSEHQLLHDKGKSIQDMRRRFFLHHLI-NH2) [M18-PTHrP(1-28)NH] | 113 |
| K26-PTHrP(1-28) (AVSEHQLLHDKGKSIQDLRRRFFLHKLI-NH2) [K26-PTHrP(1-28)NH] | 142 |
| E18-PTHrP(1-28) (AVSEHQLLHDKGKSIQDERRRFFLHHLI-NH2) [E18-PTHrP(1-28)NH] | 140 |
| N26-PTHrP(1-28) (AVSEHQLLHDKGKSIQDLRRRFFLHNLI-NH2) [N26-PTHrP(1-28)NH] | 113 |
| S18-PTHrP(1-28) (AVSEHQLLHDKGKSIQDSRRRFFLHHLI-NH2) [S18-PTHrP(1-28)NH] | 121 |
| A18,22,F25,K26-PTHrP(1-28) (AVSEHQLLHDKGKSIQDARRRAFLFKLI-NH2) [A18, 22, F25, K26-PTHrP(1-28)NH] | 337 |
| F18-PTHrP(1-28) (AVSEHQLLHDKGKSIQDFRRRFFLHHLI-NH2) [F18-PTHrP(1-28)NH] | 109 |
| A22-PTHrP(1-28) (AVSEHQLLHDKGKSIQDLRRRAFLHHLI-NH2) [A22-PTHrP(1-28)NH] | 185 |
| W22-PTHrP(1-28) (AVSEHQLLHDKGKSIQDLRRRWFLHHLI-NH2) [W22-PTHrP(1-28)NH] | 129 |
| L22-PTHrP(1-28) (AVSEHQLLHDKGKSIQDLRRRLFLHHLI-NH2) [L22-PTHrP(1-28)NH] | 142 |
| K22-PTHrP(1-28) (AVSEHQLLHDKGKSIQDLRRRKFLHHLI-NH2) [K22-PTHrP(1-28)NH] | 150 |
| E22-PTHrP(1-28) (AVSEHQLLHDKGKSIQDLRRREFLHHLI-NH2) [E22-PTHrP(1-28)NH] | 121 |
| E18,S22,K25,26-PTHrP(1-28) (AVSEHQLLHDKGKSIQDERRRSFLKKLI-NH2) [E18, S22, K25, 26-PTHrP(1-28)NH] | 335 |
| A18-PTHrP(1-28) (AVSEHQLLHDKGKSIQDARRRFFLHHLI-NH2) [A18-PTHrP(1-28)NH] | 164 |
| A18,22,I25,K26-PTHrP(1-28) (AVSEHQLLHDKGKSIQDARRRAFLIKLI-NH2) [A18, 22, I25, K26-PTHrP(1-28)NH] | 342 |

target: T1, human PTHR, G protein-uncoupled conformation (R^0) (Homo sapiens, UniProt Q03431); assay: Competition binding to R0 conformation of hPTHR (COS-7 membranes, GTPγS, 125I-PTH(1-34) tracer); conditions: Table 4; human PTH1 receptor; read-out: R0 binding IC50
T1 construct: expressed in transfected cells; host or cells: COS-7, transient (Fugene-6)
T1 sequence (Q03431 27-593): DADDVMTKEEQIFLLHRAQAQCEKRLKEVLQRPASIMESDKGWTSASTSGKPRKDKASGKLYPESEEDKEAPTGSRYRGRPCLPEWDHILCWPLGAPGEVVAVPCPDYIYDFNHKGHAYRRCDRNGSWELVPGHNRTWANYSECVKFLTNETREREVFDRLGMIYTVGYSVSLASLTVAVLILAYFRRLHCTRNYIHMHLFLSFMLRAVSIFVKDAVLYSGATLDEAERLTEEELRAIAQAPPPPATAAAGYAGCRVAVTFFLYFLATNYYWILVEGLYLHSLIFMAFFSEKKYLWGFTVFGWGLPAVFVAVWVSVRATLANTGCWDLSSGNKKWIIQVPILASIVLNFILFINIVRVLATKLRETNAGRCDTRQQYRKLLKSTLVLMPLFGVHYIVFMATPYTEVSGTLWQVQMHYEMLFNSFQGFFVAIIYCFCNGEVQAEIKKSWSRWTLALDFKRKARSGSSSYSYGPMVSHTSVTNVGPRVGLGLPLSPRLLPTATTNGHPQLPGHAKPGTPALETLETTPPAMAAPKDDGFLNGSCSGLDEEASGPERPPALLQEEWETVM
Method: Membranes were prepared from COS-7 cells transfected with the hPTHR alone. GTPγS ([…]) was added to the binding reactions so as to functionally uncouple receptor-heterotrimeric G protein complexes, thus enriching for the R^0 (and R) conformations, relative to RG.
Reactions contained a total membrane protein concentration of 20 to 100 μg/mL, and a total radioactivity concentration of approximately 150,000 cpm/ml. Unlabeled peptide ligands and/or GTPγS (Sigma-Aldrich Inc. St. Louis, Mo.) were added to the reactions as indicated.
Membranes, tracer radioligand, and various concentrations of unlabeled ligands and/or GTPγS were incubated in the wells for 90 minutes, following which, the reaction plates were processed by rapid vacuum filtration to separate bound from free radioligand, as described above. […] For both radioligands, the non-specific binding was determined in reactions containing a saturating concentration of the unlabeled analog of the radioligand. The specifically bound radioactivity was calculated as a percent of the radioactivity specifically bound in the absence of a competing ligand or GTPγS.
To assess the capacities of various unlabeled peptide ligands to bind to the G protein-uncoupled and G protein-coupled PTHR conformations (R^0 and RG, respectively), membranes were prepared from transiently transfected COS-7 cells and the following assay conditions.

| IC50 [nM] | Molecule |
| --- | --- |
| 1.2 ± 0.4 | CC[C@H](C)[C@H](NC(=O)[C@H](CCC(=O)O)NC(=O)[C@H](C)NC(=O)[C@@H](NC(=O)[C@H](C)N)C(C)C)C(=O)N[C@@H](CCC(N)=O)C(=O)N[C@@H](CC(C)C)C(=O)N[C@@H](CCSC)C(=O)N[C@@H](Cc1c[nH]cn1)C(=O)N[C@@H](CCC(N)=O)C(=O)N[C@@H](CCCNC(=N)N)C(=O)N[C@@H](C)C(=O)N[C@@H](CCCCN)C(=O)N[C@@H](Cc1c[nH]c2ccccc12)C(=O)N[C@@H](CC(C)C)C(=O)N[C@@H](CC(N)=O)C(=O)N[C@@H](CO)C(=O)N[C@@H](CCSC)C(=O)N[C@@H](CCCNC(=N)N)C(=O)N[C@@H](CCCNC(=N)N)C(=O)N[C@H](C(=O)N[C@@H](CCC(=O)O)C(=O)N[C@@H](Cc1ccccc1)C(=O)N[C@@H](CC(C)C)C(=O)N[C@@H](CCCNC(=N)N)C(=O)N[C@@H](CCCCN)C(=O)N[C@@H](CCCCN)C(=O)N[C@@H](CC(C)C)C(=O)N[C@@H](CCC(N)=O)C(=O)N[C@@H](CC(=O)O)C(=O)N[C@H](C(=O)N[C@@H](Cc1c[nH]cn1)C(=O)N[C@@H](CC(N)=O)C(=O)N[C@@H](Cc1ccccc1)C(=O)O)C(C)C)C(C)C [F23,Mc-PTH(1-34)OH, F^23,Mc-PTH(1-34)OH] (H-AVAEIQLMHQRAKWLNSMRRVEFLRKKLQDVHNF-OH; N-terminus assumed) |

same assay, conditions: human PTH receptor on COS-7 cell membranes

| R0/RG ratio | Molecule |
| --- | --- |
| 5 | CC[C@H](C)[C@H](NC(=O)[C@H](CCC(=O)O)NC(=O)[C@H](C)NC(=O)[C@@H](NC(=O)[C@H](C)N)C(C)C)C(=O)N[C@@H](CCC(N)=O)C(=O)N[C@@H](CC(C)C)C(=O)N[C@@H](CCSC)C(=O)N[C@@H](Cc1c[nH]cn1)C(=O)N[C@@H](CCC(N)=O)C(=O)N[C@@H](CCCNC(=N)N)C(=O)N[C@@H](C)C(=O)N[C@@H](CCCCN)C(=O)N[C@@H](Cc1c[nH]c2ccccc12)C(=O)N[C@@H](CC(C)C)C(=O)N[C@@H](CC(N)=O)C(=O)N[C@@H](CO)C(=O)N[C@@H](CCSC)C(=O)N[C@@H](CCCNC(=N)N)C(=O)N[C@@H](CCCNC(=N)N)C(=O)N[C@H](C(=O)N[C@@H](CCC(=O)O)C(=O)N[C@@H](Cc1ccccc1)C(=O)N[C@@H](CC(C)C)C(=O)N[C@@H](CCCNC(=N)N)C(=O)N[C@@H](CCCCN)C(=O)N[C@@H](CCCCN)C(=O)N[C@@H](CC(C)C)C(=O)N[C@@H](CCC(N)=O)C(=O)N[C@@H](CC(=O)O)C(=O)N[C@H](C(=O)N[C@@H](Cc1c[nH]cn1)C(=O)N[C@@H](CC(N)=O)C(=O)N[C@@H](Cc1ccccc1)C(=O)O)C(C)C)C(C)C [F23,Mc-PTH(1-34)OH, F^23,Mc-PTH(1-34)OH] (H-AVAEIQLMHQRAKWLNSMRRVEFLRKKLQDVHNF-OH; N-terminus assumed) |
| 80 | CC[C@H](C)[C@H](NC(=O)[C@H](CCC(=O)O)NC(=O)[C@H](C)NC(=O)[C@@H](NC(=O)[C@H](C)N)C(C)C)C(=O)N[C@@H](CCC(N)=O)C(=O)N[C@@H](CC(C)C)C(=O)N[C@@H](CCSC)C(=O)N[C@@H](Cc1c[nH]cn1)C(=O)N[C@@H](CCC(N)=O)C(=O)N[C@@H](CCCNC(=N)N)C(=O)N[C@@H](C)C(=O)N[C@@H](CCCCN)C(=O)N[C@@H](Cc1c[nH]c2ccccc12)C(=O)N[C@@H](CC(C)C)C(=O)N[C@@H](CC(N)=O)C(=O)N[C@@H](CO)C(=O)N[C@@H](CCSC)C(=O)N[C@@H](CCCNC(=N)N)C(=O)N[C@@H](C)C(=O)N[C@H](C(=O)N[C@@H](CCC(=O)O)C(=O)N[C@@H](Cc1c[nH]c2ccccc12)C(=O)N[C@@H](CC(C)C)C(=O)N[C@@H](CCCNC(=N)N)C(=O)N[C@@H](CCCCN)C(=O)N[C@@H](CCCCN)C(=O)N[C@@H](CC(C)C)C(=O)N[C@@H](CCC(N)=O)C(=O)N[C@@H](CC(=O)O)C(=O)N[C@H](C(=O)N[C@@H](Cc1c[nH]cn1)C(=O)N[C@@H](CC(N)=O)C(=O)N[C@@H](Cc1ccccc1)C(=O)O)C(C)C)C(C)C [A20,Mc-PTH(1-34)OH, A^20,Mc-PTH(1-34)OH] (H-AVAEIQLMHQRAKWLNSMRAVEWLRKKLQDVHNF-OH; N-terminus assumed) |

— patent US9057727B2, “Screening methods using G-protein coupled receptors and related compositions” (The General Hospital Corporation, priority 2007, dated 2015)
